US10189836B2, “Therapeutic compounds, compositions and methods of use thereof” (Genentech, Inc., priority 2015, dated 2019)

Columns and labels:
[1] = target: isolated recombinant JAK2 kinase domain (Homo sapiens (Human), UniProt O60674); assay: JAK2 enzyme assay (Caliper LabChip, Ki); assay type: biochemical; details: isolated recombinant JAK2 kinase domain, 0.2 nM enzyme, ATP 25 μM
[2] = target: isolated recombinant JAK1 kinase domain (Homo sapiens (Human), UniProt P23458); assay: JAK1 enzyme assay (Caliper LabChip, Ki); assay type: biochemical; details: isolated recombinant JAK1 kinase domain, 1.5 nM enzyme, ATP 25 μM
Sequence of isolated recombinant JAK1 kinase domain (P23458 875-1153): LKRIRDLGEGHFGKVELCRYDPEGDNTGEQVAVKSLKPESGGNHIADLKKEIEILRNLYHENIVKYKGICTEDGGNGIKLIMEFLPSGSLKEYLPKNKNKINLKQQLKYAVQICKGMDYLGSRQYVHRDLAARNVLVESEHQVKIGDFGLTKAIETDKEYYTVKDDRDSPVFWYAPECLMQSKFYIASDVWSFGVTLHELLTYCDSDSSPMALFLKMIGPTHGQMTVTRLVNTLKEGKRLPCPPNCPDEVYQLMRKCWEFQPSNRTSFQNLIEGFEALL

Sequence of isolated recombinant JAK2 kinase domain (O60674 849-1124): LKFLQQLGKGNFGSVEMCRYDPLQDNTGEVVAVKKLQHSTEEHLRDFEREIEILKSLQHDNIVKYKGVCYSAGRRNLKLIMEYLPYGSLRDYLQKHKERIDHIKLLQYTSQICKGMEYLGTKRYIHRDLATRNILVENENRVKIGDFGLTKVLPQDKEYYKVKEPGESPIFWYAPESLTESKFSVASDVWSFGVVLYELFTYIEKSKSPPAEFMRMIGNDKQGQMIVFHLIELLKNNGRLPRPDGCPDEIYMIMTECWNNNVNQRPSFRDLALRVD

| SMILES | Ki [1] | Ki [2] |
| --- | --- | --- |
| CN1CCN(C(=O)Cn2cc(Nc3nc4c(N5CC6CCC(C5)N6C(=O)C5CC5C(F)(F)F)cccn4n3)cn2)CC1 (stereo not drawn) [Example 14, 1-(4-methylpiperazin-1-yl)-2-[4-[[8-[8-[2-(trifluoromethyl)cyclopropanecarbonyl]-3,8-diazabicyclo[3.2.1]octan-3-yl]-[1,2,4]triazolo[1,5-a]pyridin-2-yl]amino]pyrazol-1-yl]ethanone] | 1.1 nM | 1 nM |
| CN1CCN(C(=O)Cn2cc(Nc3nc4c(N5CC6CCC(C5)N6C(=O)[C@H]5C[C@@H](C(F)(F)F)C5)cccn4n3)cn2)CC1 [Example 15, formic acid; 1-(4-methylpiperazin-1-yl)-2-[4-[[8-[8-[3-(trifluoromethyl)cyclobutanecarbonyl]-3,8-diazabicyclo[3.2.1]octan-3-yl]-[1,2,4]triazolo[1,5-a]pyridin-2-yl]amino]pyrazol-1-yl]ethanone] | 3.7 nM | 1.1 nM |
| CN1CCN(C(=O)Cn2cc(Nc3nc4c(N5CC6CCC(C5)N6C(=O)CC5CC5(F)F)cccn4n3)cn2)CC1 (stereo not drawn) [Example 16, 2-(2,2-difluorocyclopropyl)-1-[3-[2-[[1-[2-(4-methylpiperazin-1-yl)-2-oxo-ethyl]pyrazol-4-yl]amino]-[1,2,4]triazolo[1,5-a]pyridin-8-yl]-3,8-diazabicyclo[3.2.1]octan-8-yl]ethanone] | 1.8 nM | 1 nM |
| CN1CCN(C(=O)Cn2cc(Nc3nc4c(N5CC6CC(C5)N6Cc5ccc(Cl)cc5)cccn4n3)cn2)CC1 [Example 34, 2-[4-[(8-[6-[(4-chlorophenyl)methyl]-3,6-diazabicyclo[3.1.1]heptan-3-yl]-[1,2,4]triazolo[1,5-a]pyridin-2-yl)amino]-1H-pyrazol-1-yl]-1-(4-methylpiperazin-1-yl)ethan-1-one] | 271 nM | 68.8 nM |
| CN1CCN(C(=O)Cn2cc(Nc3nc4c(N5CC6CCC(C5)N6C(=O)C5CC5(F)F)cccn4n3)cn2)CC1 (stereo not drawn) [Example 37, 2-[4-[[8-[8-(2,2-difluorocyclopropanecarbonyl)-3,8-diazabicyclo[3.2.1]octan-3-yl]-[1,2,4]triazolo[1,5-a]pyridin-2-yl]amino]pyrazol-1-yl]-1-(4-methylpiperazin-1-yl)ethanone] | 1.8 nM | 1.3 nM |
| CN1CCN(C(=O)Cn2cc(Nc3nc4c(N5CC6CCC(C5)N6C(=O)C5(C(F)(F)F)CC5)cccn4n3)cn2)CC1 [Example 38, 1-(4-methylpiperazin-1-yl)-2-[4-[[8-[8-[1-(trifluoromethyl)cyclopropanecarbonyl]-3,8-diazabicyclo[3.2.1]octan-3-yl]-[1,2,4]triazolo[1,5-a]pyridin-2-yl]amino]pyrazol-1-yl]ethanone] | 1.8 nM | 1.3 nM |
| O=C(Cn1cc(Nc2nc3c(N4CC5CCC(C4)N5C(=O)N4CC(C(F)(F)F)C4)cccn3n2)cn1)N1CCN(C2CCOCC2)CC1 [Example 39, 1-(4-tetrahydropyran-4-ylpiperazin-1-yl)-2-[4-[[8-[8-[3-(trifluoromethyl)azetidine-1-carbonyl]-3,8-diazabicyclo[3.2.1]octan-3-yl]-[1,2,4]triazolo[1,5-a]pyridin-2-yl]amino]pyrazol-1-yl]ethanone] | 0.4 nM | 0.7 nM |
| CN1CCN(C(=O)Cn2cc(Nc3nc4c(N5CC6CCCC(C5)N6C(=O)[C@H]5C[C@H](C(F)(F)F)C5)cccn4n3)cn2)CC1 [Example 40, 1-(4-methylpiperazin-1-yl)-2-[4-[[8-[9-[3-(trifluoromethyl)cyclobutanecarbonyl]-3,9-diazabicyclo[3.3.1]nonan-3-yl]-[1,2,4]triazolo[1,5-a]pyridin-2-yl]amino]pyrazol-1-yl]ethanone] | 0.6 nM | 0.6 nM |
| O=C(Cn1cc(Nc2nc3c(N4CC5CCC(C4)N5C(=O)CCC(F)(F)F)cccn3n2)cn1)N1CCC(CN2CCOCC2)CC1 [Example 41, 4,4,4-trifluoro-1-[3-[2-[[1-[2[4-(morpholinomethyl)-1-piperidyl]-2-oxo-ethyl]pyrazol-4-yl]amino]-[1,2,4]triazolo[1,5-a]pyridin-8-yl]-3,8-diazabicyclo[3.2.1]octan-8-yl]butan-1-one] | 4.6 nM | 2.6 nM |
